The source made the active and inactive calls.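 The calls were made as follows: active = a full or partial dose-response curve in at least two of three replicate runs; inactive = the rest.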
Molecular target: D(1B) dopamine receptor (Homo sapiens) (UniProt P21918)
Test: dopamine D5 receptor modulation at EC30 dopamine, dose response, selectivity assay for D1 allosteric modulator project, cell-based, HEK293, CRE-luciferase, luminescence (AID 857);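 also: HEK 293 cells expressing human D5 with a CRE-driven luciferase reporter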

Sequence of D(1B) dopamine receptor (Homo sapiens) (P21918 whole entry, looked up): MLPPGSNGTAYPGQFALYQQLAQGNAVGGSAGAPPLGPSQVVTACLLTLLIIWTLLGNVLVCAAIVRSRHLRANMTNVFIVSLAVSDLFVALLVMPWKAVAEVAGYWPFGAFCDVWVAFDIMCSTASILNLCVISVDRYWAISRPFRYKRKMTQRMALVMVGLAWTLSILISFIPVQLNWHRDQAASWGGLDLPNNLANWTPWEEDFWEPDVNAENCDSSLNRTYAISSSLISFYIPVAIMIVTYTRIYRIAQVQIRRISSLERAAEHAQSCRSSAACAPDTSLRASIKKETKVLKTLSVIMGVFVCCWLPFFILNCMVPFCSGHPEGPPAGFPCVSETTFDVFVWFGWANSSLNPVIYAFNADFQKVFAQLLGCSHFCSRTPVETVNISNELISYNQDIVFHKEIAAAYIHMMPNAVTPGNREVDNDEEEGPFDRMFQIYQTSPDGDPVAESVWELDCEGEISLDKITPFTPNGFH

Compound | outcome
Nc1ncnc2c1ncn2CCOc1ccccc1 | inactive
C=CCNC(=O)c1ccccc1NC(=O)c1ccccc1 | inactive
Cc1cccc(-c2c3c(=O)n(C)c(=O)n(C)c3cn2-c2ccccc2O)c1 | inactive
COC(=O)c1c(NC(=O)Cc2cccs2)sc2c1CCC(C)C2 (configuration not stated) | inactive
Cn1c2c(c3ccccc31)CC/C2=N\O | inactive
C/C(=C\C(=O)c1ccccc1)Nc1cccc(O)c1 | inactive
Cc1cccc(C2CC(c3ccc(F)cc3)Nc3nc(N)nn32)c1 (configuration not stated) | inactive
Cc1cc(N2CCN(S(=O)(=O)c3ccc4c(c3)OCCO4)CC2)n2ncnc2n1 | inactive
CCOC(=O)c1nn(-c2ccccc2C)c(=O)c(C#N)c1C | inactive
Cc1ccc(-n2c(SCC(=O)OC(C)C)nnc2-c2cnccn2)cc1 | inactive
CSC1=NCCN1C(=O)c1ccc(Br)o1 | inactive
COc1cccc(N2C(=O)C3ON(c4ccccc4)C(c4cccs4)C3C2=O)c1 (configuration not stated) | inactive
Cc1cc(SCC(=O)N2CCC(c3noc4ccc(F)cc34)CC2)nc2ccccc12 | inactive
Cc1cc(N)n(-c2nc(-c3cccnc3)nc3ccccc23)n1 | inactive
COc1ccc(CN(Cc2cccnc2)S(=O)(=O)c2ccc(-n3cnnn3)c(C)c2)cc1OC | inactive
COc1ccccc1NC(=O)CC1Nc2ccccc2NC1=O (configuration not stated) | inactive
CCCCCn1c(NCc2ccco2)nc2ccccc21 | inactive
CCn1c(SCc2cccnc2)nc2c1c(=O)n(C)c(=O)n2C | inactive
CCOC(=O)c1cnn(-c2cccc(Cl)c2)c1N | inactive
COc1ccc(-n2nc3ccccc3n2)cc1 | inactive
CCCc1nc2sc3c(SCC(=O)NCc4ccco4)ncnc3c2c2c1CCC2 | inactive
Cc1ccc(CNc2nc3ccccc3n3nnnc23)cc1 | inactive
CC(C)C1C2=C(CC(C)(C)CC2=O)ON1c1ccccc1 (configuration not stated) | inactive

Compound | outcome
CC1(C)Cc2c(C#N)c(N3CCCC3)nc(-c3ccco3)c2CO1 | inactive
COC(=O)c1cccc(S(=O)(=O)N2CCC(NC(=O)NC34CC5CC(CC(C5)C3)C4)CC2)c1 | inactive
Cc1cc(C)c(C#N)c(SCc2ccc(C#N)cc2)n1 | inactive
CCNc1nc(NC(C)(C)C)nc(N(CC)n2cnnc2)n1 | inactive
CC(C)Sc1nc2c(c(=O)n1C)SC(C)C2 (configuration not stated) | inactive
CCCn1c(=NC(=O)c2ccco2)c(C(=O)OCC)cc2c(=O)n3ccccc3nc21 | inactive
CCOc1ccccc1C1CC(c2ccccc2)Nc2nc(N)nn21 (configuration not stated) | inactive
COc1cccc(NC2=NCC(=O)N2Cc2cccs2)c1 | inactive
CC(=O)c1cc(C#N)c(SCC(=O)OC(C)(C)C)nc1C | inactive
N#Cc1c2c(nc(N)c1-c1ccccc1)CCCCC2 | inactive
COc1cccc(-c2nn3c(-c4cc(C)[nH]n4)nnc3s2)c1 | inactive
CCOC(=O)c1c(-c2cccs2)csc1NC(=O)CSc1ncn[nH]1 | inactive
CC(C)Oc1ccccc1C1CC(=O)Nc2cc3c(cc21)OCCO3 (configuration not stated) | inactive
COc1ccc(-c2c3c(=O)n(C)c(=O)n(C)c3cn2-c2ccccc2)cc1 | inactive
O=C1C(Cl)=C(NCC2CCCO2)C(=O)N1C1CCCCC1 (configuration not stated) | inactive
COc1ccc(S(=O)(=O)Nc2ccc3c(c2)OCO3)cc1OC | inactive
CC(=O)Nc1nc2n(n1)C(c1ccccc1)C=C(c1ccccc1)N2 (configuration not stated) | inactive
Nc1nc(CN2CCN(c3ccccc3)CC2)nc(N2CCCc3ccccc32)n1 | inactive
O=C(Nc1ncnc2sc3c(c12)CCCCC3)c1ccco1 | inactive
CCc1nn(CCCC(=O)N2CCc3ccccc3C2)c(=O)c2cc3occc3n12 | inactive
Nc1nc(SCC(=O)OCc2ccccc2)[nH]c(=O)c1NC(=O)c1ccco1 | inactive
c1ccc(-c2nc3nonc3nc2-c2ccccc2)cc1 | inactive
C=CCn1c(SCc2nc3c(c(=O)[nH]c(=O)n3CCCC)n2CCC)nnc1-c1ccccc1 | inactive

Compound | outcome
Cc1ccc(-c2cc(-c3ccc4c(c3)OCO4)c(C#N)c(N)n2)o1 | inactive
C(=N\C(/N=C/c1ccco1)c1ccco1)/c1ccco1 | inactive
CCn1c2ccccc2c2nc3ccccc3nc21 | inactive
Cc1cc(=O)n(CC=C(Cl)Cl)c2ccccc12 | inactive
COc1ccc(N2C(=O)C3CCCN3C2c2ccccc2)cc1Cl (configuration not stated) | inactive
CC1=CC(C)(C)N=C(NC#N)N1 | inactive
COc1ccc(NC(=O)c2ccc(NS(=O)(=O)c3c(C)noc3C)cc2)cc1OC | inactive
COc1ccc(-c2noc(COc3ccc4ccccc4c3Br)n2)cc1OC | inactive
COc1ccc(-c2noc(CCC(N)=O)n2)cc1OC | inactive
COc1ccc(C(=O)Nc2nnc(Cc3cccs3)s2)cc1OC | inactive
CCSC(C)CC1C/C(=N/O)c2c(CC)noc2C1 (configuration not stated) | inactive
COC(=O)c1ccc(C(=O)OC)c(NC(=O)COC(=O)C23CC4CC(CC(O)(C4)C2)C3)c1 | inactive
Cc1sc2ncnc(SCC(=O)N3CCCC3)c2c1C | inactive
Brc1ccc(-c2nn3c(Cc4ccccc4)nnc3s2)o1 | inactive
COc1ccc(C2CC(=O)Nc3ccccc3S2(=O)=O)cc1OC (configuration not stated) | inactive
CCOC(=O)N1CCC(N2Cc3cccc(C(=O)NC(C)c4ccc5c(c4)OCCO5)c3C2=O)CC1 (configuration not stated) | inactive
COc1ccc(C2=NOC(C(=O)NC3CCCCC3)C2)cc1OC (configuration not stated) | inactive
Cc1cc(-n2nc(C)cc2C)nc(NS(=O)(=O)c2ccccc2)n1 | inactive
CCOC(=O)N1CCN(C(=O)C(C)(C)Oc2ccc(Cl)cc2)CC1 | inactive
C=CCNc1sc(C(=O)C(C)(C)C)c(N)c1C#N | inactive
CCCCCn1c(N)c(C#N)c2nc3ccccc3nc21 | inactive
COC(=O)c1ccc(CSc2nc3c(cnn3-c3ccc(F)cc3)c(=O)[nH]2)o1 | inactive
Fc1cc(Br)ccc1Nc1nc2ccccc2n2nnnc12 | inactive

Compound | outcome
OCCNc1ncnc2c1c(-c1ccccc1)c(-c1ccccc1)n2Cc1ccco1 | inactive
Cc1ccc(-n2c(=O)cc(N3CC(C)CC(C)C3)[nH]c2=O)cc1 (configuration not stated) | inactive
CCCCCn1c(SCC(=O)OC)nc2c1c(=O)[nH]c(=O)n2C | inactive
COc1ccccc1CNC(=O)c1ccc(NS(=O)(=O)c2c(C)noc2C)cc1 | inactive
CCOC(=O)C(C)Oc1cccc2c(=O)n(CC(=O)NCc3ccco3)ccc12 (configuration not stated) | inactive
CCC(=O)n1nc(-c2cccnc2)nc1NCc1ccc(OC)cc1 | inactive
Cc1cc(C)n(CC(=O)n2c3c(c4ccccc42)CCCC3)n1 | inactive
O=C(CCc1ccc(CCC(=O)c2cccs2)s1)c1cccs1 | inactive
COc1ccc(Cn2nnc3c(=O)[nH]c(C4CCCN(C(=O)c5ccccc5)C4)nc32)cc1 (configuration not stated) | inactive
COC(=O)C(C)C1Sc2ccccc2NC1=O (configuration not stated) | inactive
CCCCn1c(=O)c(C(=O)Nc2cnccn2)c(O)c2ccccc21 | inactive
O=S(=O)(c1cccs1)N1CCN(c2ccccn2)CC1 | inactive
CCOC(=O)Cc1[nH]nc2c1C(c1cccc(OC)c1OC)C(C#N)=C(N)O2 (configuration not stated) | inactive
COc1ccc(Cc2nnc(NC(=O)c3c(-c4ccccc4)noc3C)s2)cc1 | inactive
CCOc1ccc(-c2noc(COC)n2)cc1OC | inactive
O=C1c2ccccc2-c2onc3ccc(NCCCn4ccnc4)c1c23 | inactive
CSc1oc(-c2ccco2)nc1S(=O)(=O)c1ccc(Br)cc1 | inactive
CCOC(=O)C(O)(CCC(O)(C(=O)OCC)C(=O)OCC)C(=O)OCC | inactive
COc1ccc(-c2noc(-c3ccco3)n2)cc1OC | inactive
Cc1cc(-c2cccs2)c2c(n1)sc1c(=O)[nH]c(=O)[nH]c12 | inactive
CCc1nnc(NC(=O)CSc2ncc(-c3ccccc3)n2CC)s1 | inactive
C=CCSc1nc2ccccc2c(=O)[nH]1 | inactive
CCCOc1ccccc1NC(=O)c1ccc(N)cc1 | inactive

Compound | outcome
COc1ccc2nc(SCC(=O)N3CCCCCC3)c(C#N)cc2c1 | inactive
N#Cc1nc(N)nc(N(c2ccccc2)c2ccccc2)n1 | inactive
NC1=NC(c2cn(-c3ccccc3)nc2-c2cccs2)n2c(nc3ccccc32)N1 (configuration not stated) | inactive
Nc1nc2n(n1)C(c1ccccc1)CC(c1ccc(F)cc1)N2 (configuration not stated) | inactive
O=C(CSc1nc2ccccc2s1)NC(=O)NCc1ccco1 | inactive
Cc1nc(-c2ccc(S(=O)(=O)N3CCCCCC3)cc2)cs1 | inactive
N#Cc1nc(-c2ccccc2Cl)oc1N1CCOCC1 | inactive
NC(=O)c1c(NC(=O)CSc2nnc(-c3ccco3)n2-c2ccccc2)sc2c1CCC2 | inactive
c1ccc2c(c1)CCCN2c1nc2ccccc2n2cnnc12 | inactive
CCOc1cc(C2CC(=O)NC(SCC)=C2C#N)ccc1O (configuration not stated) | inactive
Cc1noc(C)c1CSc1ncnc2ccccc12 | inactive
CCOC(=O)c1c(C)oc2c1c(C=NCc1ccccn1)c(O)c1ccccc12 | inactive
Cn1c(=O)c2c(SCc3ccccc3)nc(-c3ccco3)nc2n(C)c1=O | inactive
N#CC1=C(N)N(c2ccccc2)C2=C(C(=O)CCC2)C1c1ccsc1 (configuration not stated) | inactive
c1ccc(Cn2nnc3c(N4CCc5ccccc54)ncnc32)cc1 | inactive
CC1CCCCN1C(=O)CSc1nc(C2CC2)nc2c1cnn2-c1ccccc1 (configuration not stated) | inactive
CCOC(=O)c1ccc(Oc2cc(C)nc(SC)n2)cc1 | inactive
Cc1c(C)c2ccc(OC3CCCCC3=O)cc2oc1=O (configuration not stated) | inactive
O=C1OCCC1Sc1ncnc2sc3c(c12)CCC3 (configuration not stated) | inactive
O=C(C1CCC1)N1CCc2cc(S(=O)(=O)NCc3cccnc3)ccc21 | inactive
